The results in this text go back to patent US10927105B1 (Lundbeck La Jolla Research Center, Inc., priority 2017, dated 2021).

Molecules are shown by their SMILES.

The assay concerns the target MAGL (Homo sapiens (Human), UniProt Q99685). The assay can be described thus: In vitro competitive activity-based protein profiling (human prefrontal cortex membrane fractions, FP-Rh probe), MAGL band. The note with it: read-out: MAGL IC50 (μM) (human); human prefrontal cortex membrane fractions.

Chain of MAGL (Q99685 whole entry): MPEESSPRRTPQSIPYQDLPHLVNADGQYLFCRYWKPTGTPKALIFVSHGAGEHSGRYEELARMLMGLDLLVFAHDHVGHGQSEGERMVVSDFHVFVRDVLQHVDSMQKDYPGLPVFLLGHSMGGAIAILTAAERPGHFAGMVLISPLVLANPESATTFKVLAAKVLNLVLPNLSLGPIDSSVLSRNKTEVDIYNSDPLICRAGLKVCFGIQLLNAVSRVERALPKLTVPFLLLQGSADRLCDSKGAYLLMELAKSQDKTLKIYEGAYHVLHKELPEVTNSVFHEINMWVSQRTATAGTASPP
Protocol: Biological Evaluation In Vitro Competitive Activity-Based Protein Profiling.
Proteomes (mouse brain membrane fraction for mouse assays; human prefrontal cortex membrane fractions for human assays) (50 mL, 1.0 mg/mL total protein concentration) were preincubated with varying concentrations of inhibitors at 37° C. After 30 min, FP-Rh (1.0 mL, 50 mM in DMSO) was added and the mixture was incubated for another 30 min at 37° C. Reactions were quenched with SDS loading buffer (15 μL-4×) and run on SDS-PAGE.

In general, IC50 refers to the concentration that inhibits the measured activity by half. As to `CN(Cc1cc(Cl)ccc1C(F)(F)F)CC1CCN(C(=O)n2ccc(C(=O)O)n2)CC1` [Example 209, 1-(4-(((5-chloro-2-(trifluoromethyl)-benzyl)-(methyl)amino)-methyl)piperidine-1-carbonyl)-1H-pyrazole-3-carboxylic acid], the IC50 is < 0.1 µM.

Regarding `CNC(=O)c1ccn(C(=O)N2C[C@H]3C[C@@H](N(C)Cc4ccccc4C(F)(F)F)C[C@H]3C2)n1` [Example 434, N-methyl-1-(cis-5-(methyl(2-(trifluoromethyl)-benzyl)amino)-octahydrocyclopenta-[c]pyrrole-2-carbonyl)-1H-pyrazole-3-carboxamide], the IC50 is < 0.1 µM.

Consider `O=C(O)c1ccn(C(=O)N2CCC3(CCN(Cc4ccc(C(F)(F)F)cc4Cl)C3)CC2)n1` [Example 77, 1-(2-(2-chloro-4-(trifluoromethyl)-benzyl)-2,8-diazaspiro[4.5]-decane-8-carbonyl)-1H-pyrazole-3-carboxylic acid], for which the IC50 was < 0.1 µM.

With `NC(=O)c1ccn(C(=O)N2CC3CN(Cc4ccc(C5(O)CCOCC5)cc4C(F)(F)F)CC3C2)n1` (stereo not shown) [Example 396, 1-(5-(4-(4-hydroxytetrahydro-2H-pymn-4-yl)-2-(trifluoromethyl)-benzyl)-octahydropyrrolo-[3,4-c]pyrrole-2-carbonyl)-1H-pyrazole-3-carboxamide], the IC50 was < 0.1 µM.

Turning to `O=C(O)c1nn(C(=O)N2CCC3(CCN(Cc4cc(Cl)ccc4C(F)(F)F)C3)CC2)cc1C(F)(F)F` [Example 148, 1-(2-(5-chloro-2-(trifluoromethyl)-benzyl)-2,8-diazaspiro[4.5]-decane-8-carbonyl)-4-(trifluoromethyl)-1H-pyrazole-3-carboxylic acid], the IC50 is < 0.1 µM.

For the molecule `O=C(O)c1ccn(C(=O)N2CCN(Cc3cc(F)cc(Oc4cccc(Cl)c4)c3)CC2)n1` [Example 321, 1-(4-(3-(3-chlorophenoxy)-5-fluorobenzyl)-piperazine-1-carbonyl)-1H-pyrazole-3-carboxylic acid], the IC50 is < 0.1 µM.

Take `C[C@@H]1CN(Cc2cccc(Oc3cc(C(F)(F)F)ccn3)c2)CCN1C(=O)n1ccc(C(=O)O)n1` [Example 374, (R)-1-(2-methyl-4-(3-((4-(trifluoromethyl)-pyridin-2-yl)oxy)benzyl)-piperazine-1-carbonyl)-1H-pyrazole-3-carboxylic acid]: the IC50 was < 0.1 µM.

Turning to `O=C(O)c1nn(C(=O)N2C[C@H]3C[C@H](Oc4cccc(-c5ccccc5)c4)C[C@H]3C2)cc1Cl` [Example 304, 1-(trans-5-([1,1′-biphenyl]-3-yloxy)-octahydrocyclopenta-[c]pyrrole-2-carbonyl)-4-chloro-1H-pyrazole-3-carboxylic acid], the half-maximal inhibitory concentration (IC50) was < 0.1 µM.

Regarding `O=C(O)c1ccn(C(=O)N2C[C@H]3C[C@H](Oc4ccc(-c5ccccc5)cc4)C[C@H]3C2)n1` [Example 240, 1-(trans-5-([1,1′-biphenyl]-4-yloxy)-octahydrocyclopenta-[c]pyrrole-2-carbonyl)-1H-pyrazole-3-carboxylic acid], the IC50 was < 0.1 µM.

Regarding `C[C@@H]1C[C@H](N(C)Cc2cccc(C(F)(F)F)c2)CCN1C(=O)n1ccc(C(N)=O)n1` [Example 257, 1-((2R,4R)-2-methyl-4-(methyl(3-(trifluoromethyl)-benzyl)amino)-piperidine-1-carbonyl)-1H-pyrazole-3-carboxamide], the IC50 was < 0.1 µM.

In the case of `O=C(O)c1ccn(C(=O)N2CCN(Cc3ccc(C(F)(F)F)cc3N3CCCCC3)CC2)n1` [Example 100, 1-(4-(2-(piperidin-1-yl)-4-(trifluoromethyl)-benzyl)-piperazine-1-carbonyl)-1H-pyrazole-3-carboxylic acid], the IC50 was < 0.1 µM.

As to `CC(C)(O)COc1cccc(CO[C@H]2C[C@@H]3CN(C(=O)n4ccc(C(=O)O)n4)C[C@@H]3C2)c1Cl` [Example 38, 1-(trans-5-((2-Chloro-3-(2-hydroxy-2-methylpropoxy)benzyl)oxy)octahydrocyclopenta[c]pyrrole-2-carbonyl)-1H-pyrazole-3-carboxylic Acid], the IC50 is < 0.1 µM.

Take `O=C(O)c1ccn(C(=O)N2CC3CN(Cc4cc(Cl)cc(C(F)(F)F)c4)CC3C2)n1` (stereo not shown) [Example 124, 1-(5-(3-chloro-5-(trifluoromethyl)-benzyl)-octahydropyrrolo-[3,4-c]pyrrole-2-carbonyl)-1H-pyrazole-3-carboxylic acid]: the IC50 was < 0.1 µM.

With `Cc1ccc(Oc2cccc(CN3CCN(C(=O)n4ccc(C(=O)O)n4)CC3)c2)cc1` [Example 251, 1-(4-(3-(p-tolyloxy)benzyl)-piperazine-1-carbonyl)-1H-pyrazole-3-carboxylic acid], the IC50 was < 0.1 µM.

In the case of `CNC(=O)c1ccn(C(=O)N2CC3CN(Cc4ccc(Cl)cc4)CC3C2)n1` (stereo not shown) [Example 424, 1-(5-(4-chlorobenzyl)-octahydropyrrolo-[3,4-c]pyrrole-2-carbonyl)-N-methyl-1H-pyrazole-3-carboxamide], the IC50 is < 0.1 µM.

On to `O=C(O)c1nn(C(=O)N2CCN(Cc3cccc(Oc4cc(C(F)(F)F)ccn4)c3)CC2)cc1C(F)(F)F` [Example 414, 4-(trifluoromethyl)-1-(4-(3-((4-(trifluoromethyl)-pyridin-2-yl)oxy)benzyl)-piperazine-1-carbonyl)-1H-pyrazole-3-carboxylic acid], for which the IC50 is < 0.1 µM.

Turning to `O=C(O)c1ccn(C(=O)N2CCC(OCc3ccc(Cl)c(C(F)(F)F)c3)CC2)n1` [Example 276, 1-(4-((4-chloro-3-(trifluoromethyl)-benzyl)oxy)-piperidine-1-carbonyl)-1H-pyrazole-3-carboxylic acid], the IC50 is < 0.1 µM.

For the molecule `Cc1cn(C(=O)N2CCN(Cc3cccc(Oc4ccc(Cl)cc4)c3)C[C@@H]2C)nc1C(=O)O` [Example 442, (S)-1-(4-(3-(4-chlorophenoxy)-benzyl)-2-methylpiperazine-1-carbonyl)-4-methyl-1H-pyrazole-3-carboxylic acid], the IC50 is < 0.1 µM.

Turning to `O=C(O)c1ccn(C(=O)N2C[C@H]3C[C@H](Oc4cccc(N5CCCC5)c4)C[C@H]3C2)n1` [Example 234, 1-(trans-5-(3-(pyrrolidin-1-yl)phenoxy)-octahydrocyclopenta-[c]pyrrole-2-cathonyl)-1H-pyrazole-3-carboxylic acid], the IC50 was < 0.1 µM.

For `Cc1ccc(COC2CCN(C(=O)n3ccc(C(=O)O)n3)CC2)cc1C(F)(F)F` [Example 236, 1-(4-((4-methyl-3-(trifluoromethyl)-benzyl)oxy)-piperidine-1-carbonyl)-1H-pyrazole-3-carboxylic acid], the IC50 is < 0.1 µM.

Consider `O=C(O)c1ccn(C(=O)N2CCC3(CCN(Cc4cc(Cl)cc(Cl)c4Cl)C3)CC2)n1` [Example 337, 1-(2-(2,3,5-trichlorobenzyl)-2,8-diazaspiro[4.5]-decane-8-carbonyl)-1H-pyrazole-3-carboxylic acid], for which the IC50 was < 0.1 µM.

For the molecule `O=C(O)c1ccn(C(=O)N2CCC3(CCN(Cc4cc(N5CCCC5)ccc4C(F)(F)F)C3)CC2)n1` [Example 391, 1-(2-(5-(pyrrolidin-1-yl)-2-(trifluoromethyl)-benzyl)-2,8-diazaspiro[4.5]-decane-8-carbonyl)-1H-pyrazole-3-carboxylic acid], the IC50 is < 0.1 µM.
